We go through three molecules from PMC10761696, “Avapritinib-based SAR studies unveil a binding pocket in KIT and PDGFRA” (Nature Communications, 2024).

For series [1] the following is noted: ref WO2022/081626; cited from earlier work.
The target in another series is KIT-D816H (Homo sapiens, UniProt P10721, D816H). The series is described as follows: Activity-based HTRF KinEASE assay, KIT-D816H. It counts as biochemical. (TR-FRET usually uses a lanthanide donor and a delayed reading to cut background.)
KIT-D816H, sequence (P10721 26-976 D816H): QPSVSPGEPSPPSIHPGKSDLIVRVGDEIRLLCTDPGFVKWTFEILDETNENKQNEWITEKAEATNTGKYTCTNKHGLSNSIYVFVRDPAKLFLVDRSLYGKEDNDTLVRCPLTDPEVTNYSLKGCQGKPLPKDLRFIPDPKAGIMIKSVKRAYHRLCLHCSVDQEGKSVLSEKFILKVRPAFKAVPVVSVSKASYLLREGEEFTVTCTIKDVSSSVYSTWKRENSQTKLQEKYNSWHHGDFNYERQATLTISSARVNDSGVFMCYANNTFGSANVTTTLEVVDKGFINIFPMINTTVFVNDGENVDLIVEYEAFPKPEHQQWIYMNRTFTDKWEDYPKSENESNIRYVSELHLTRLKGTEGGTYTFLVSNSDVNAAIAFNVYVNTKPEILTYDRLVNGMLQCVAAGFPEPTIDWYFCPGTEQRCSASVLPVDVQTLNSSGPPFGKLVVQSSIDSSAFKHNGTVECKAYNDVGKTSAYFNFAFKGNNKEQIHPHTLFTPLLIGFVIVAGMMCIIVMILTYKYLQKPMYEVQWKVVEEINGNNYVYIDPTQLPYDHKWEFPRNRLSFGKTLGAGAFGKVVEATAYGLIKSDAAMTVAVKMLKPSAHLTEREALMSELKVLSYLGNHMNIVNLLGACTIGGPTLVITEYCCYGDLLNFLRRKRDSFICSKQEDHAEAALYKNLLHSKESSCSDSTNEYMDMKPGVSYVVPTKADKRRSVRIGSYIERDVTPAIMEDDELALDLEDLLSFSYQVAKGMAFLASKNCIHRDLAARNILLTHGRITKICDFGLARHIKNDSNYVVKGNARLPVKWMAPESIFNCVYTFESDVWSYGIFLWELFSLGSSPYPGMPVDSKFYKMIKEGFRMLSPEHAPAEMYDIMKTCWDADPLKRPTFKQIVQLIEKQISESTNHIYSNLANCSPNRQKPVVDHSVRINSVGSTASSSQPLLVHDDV
In the next series the test system is SK-LMS-1. The series is described as follows: CellTiter-Glo (CTG) GR50, SK-LMS-1 control cell line. To be noted: for CTG GR50 SK-LMS-1: mean ± s.d., n = 3, control cell line; for CTG GR50 SK-LMS-1, single determinations: raw data of Supp. Tab. 2, independent experiments, unit from Supp. Tab. 2. (In ATP-based viability assays light output follows the ATP content of the culture.)

In a further series the target is T1, PDGFRA-D842V (Homo sapiens, UniProt P16234, D842V).
T1 construct: purchased Invitrogen PV4203 (lot #2343231B)
T1 sequence (P16234 24-1089 D842V): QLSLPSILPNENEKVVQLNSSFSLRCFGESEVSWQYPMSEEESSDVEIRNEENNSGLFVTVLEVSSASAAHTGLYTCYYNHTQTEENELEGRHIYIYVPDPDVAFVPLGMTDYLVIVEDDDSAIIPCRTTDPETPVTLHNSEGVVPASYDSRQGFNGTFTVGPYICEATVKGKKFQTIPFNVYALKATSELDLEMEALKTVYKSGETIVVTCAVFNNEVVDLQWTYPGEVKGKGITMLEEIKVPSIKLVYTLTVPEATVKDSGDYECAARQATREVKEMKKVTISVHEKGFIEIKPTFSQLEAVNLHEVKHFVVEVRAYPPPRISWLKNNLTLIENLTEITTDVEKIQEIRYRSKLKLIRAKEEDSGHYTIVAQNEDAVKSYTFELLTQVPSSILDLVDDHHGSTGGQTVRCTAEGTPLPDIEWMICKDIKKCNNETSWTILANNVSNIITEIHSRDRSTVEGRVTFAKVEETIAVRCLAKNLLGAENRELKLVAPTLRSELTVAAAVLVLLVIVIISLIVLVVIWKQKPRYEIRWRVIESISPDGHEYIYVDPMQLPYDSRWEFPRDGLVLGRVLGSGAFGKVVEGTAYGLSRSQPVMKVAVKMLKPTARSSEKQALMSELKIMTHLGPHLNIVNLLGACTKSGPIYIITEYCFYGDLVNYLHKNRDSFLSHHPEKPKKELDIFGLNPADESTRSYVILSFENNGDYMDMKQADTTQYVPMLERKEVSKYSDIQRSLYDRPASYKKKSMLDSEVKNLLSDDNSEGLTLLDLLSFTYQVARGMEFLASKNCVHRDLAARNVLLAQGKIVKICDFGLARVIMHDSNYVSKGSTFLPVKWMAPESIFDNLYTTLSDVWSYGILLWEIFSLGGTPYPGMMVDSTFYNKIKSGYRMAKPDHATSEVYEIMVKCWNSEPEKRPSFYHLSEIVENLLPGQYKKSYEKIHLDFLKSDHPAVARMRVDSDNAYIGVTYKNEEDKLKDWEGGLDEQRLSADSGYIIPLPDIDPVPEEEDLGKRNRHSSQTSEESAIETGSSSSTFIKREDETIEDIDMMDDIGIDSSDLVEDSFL
Briefly: Activity-based HTRF KinEASE assay, PDGFRA-D842V. The series is classed as biochemical.

Another series relates to GIST-T1. Briefly: CellTiter-Glo (CTG) GR50, GIST-T1. To be noted: Homo sapiens, GISTT1, read-out: KIT CTG GR50 GIST-T1, mean ± s.d., n ≥ 3; GR50 half-maximal growth inhibition rate.
Series [2] can be described thus: MDCKII-MDR1 permeability assay. As to conditions: dog; for Papp B→A at 2 h, 10 µM: MDCK-MDR1.
For a further series, the system named is MDR1. The series is described as follows: MDCKII-MDR1 permeability assay. To be noted: dog; for recovery at 2 h, 10 µM: MDCKII-MDR1, assay conc. 10.
The next series has as its system MDA-MB-175VII. The series is described as follows: CellTiter-Glo (CTG) EC50, MDA-MB-175VII breast cancer control cell line. It counts as cell-based, human. As to the method:
(§1) Cell line authenticity was confirmed by STR analysis at Eurofins Genomics. All cell lines were tested regularly for mycoplasma contamination using the Mycoplasmacheck Service at Eurofins Genomics. […] Following incubation for 24 h in a humidified atmosphere at 37 °C and 5% CO2, cells were treated with inhibitors in serial dilutions ranging from 30 µM down to 0.1 nM using an Echo650 acoustic liquid handler (Beckman Coulter). Cell viability was analyzed on day 5 using the CellTiter-Glo® assay (Promega) using 500 ms integration time. The obtained data were normalized to the plate positive control (30 µM staurosporine) and negative control (DMSO) and subsequently analyzed and fitted with the Quattro Software Suite (Quattro Research) using a four-parameter logistic model. As quality control, the Z’-factor was calculated from 16 positive and negative control values. Only assay results showing a Z’-factor ≥0.5 were used for further analysis. All experimental points were measured in duplicates for each plate and were independently replicated in at least three plates.

A further series relates to GIST-48B. The series is described as follows: CellTiter-Glo (CTG) GR50, GIST-48B control cell line (off-target toxicity).
For the next series, the system named is T1-a-D842V. Briefly: CellTiter-Glo (CTG) GR50, T1-a-D842V. As to conditions: cellular assay.
For another series, the system named is ZR-75-1. The series is described as follows: CellTiter-Glo (CTG) EC50, ZR-75-1 breast cancer control cell line. The series is classed as cell-based, human. As to conditions: Homo sapiens. On the procedure:
as §1

A further series deals with T1-V654A. Briefly: CellTiter-Glo (CTG) GR50, T1-V654A. To be noted: Homo sapiens.
In another series the test system is T1-a-5258. The series is described as follows: CellTiter-Glo (CTG) GR50, T1-a-5258. As to conditions: Homo sapiens.
The next series deals with T1-a-G680R. The series is described as follows: CellTiter-Glo (CTG) GR50, T1-a-G680R. To be noted: raw data of Table 1, independent experiments; unit from Table 1.
Another series relates to T1-T670I. Briefly: CellTiter-Glo (CTG) GR50, T1-T670I. As to conditions: Homo sapiens, read-out: KIT CTG GR50 T1-T670I, mean ± s.d., n ≥ 3.
Series [3] relates to D842V-mutant gastrointestinal stromal tumors (GIST). To be noted: patients with D842V-mutant GIST; ref NAVIGATOR trial; cited from earlier work.
The next series concerns T1-D816E. Briefly: CellTiter-Glo (CTG) GR50, T1-D816E. To be noted: mean ± s.d., n ≥ 3.
The mark [4] stands for this setting: MDCK-MDR1, MDCKII-MDR1 (Papp A→B), at 10 µM, 2 h, 37 °C, unit inferred.
The mark [5] stands for this setting: Homo sapiens, MDA-MB-175-VII, read-out: CTG EC50 MDA-MB-175VII, single determinations, raw data of Supp. Tab. 2, independent experiments, unit from Supp. Tab. 2.

The term IC50 denotes the concentration that inhibits the measured activity by half. For orientation: Papp B→A means the apparent permeability from the basolateral to the apical side of a cell layer. Broadly, the Papp A→B is the apparent permeability from the apical to the basolateral side of a cell layer. A high value points to ready permeation. By efflux ratio is commonly meant a quotient of directional permeabilities that is used to spot active efflux. Usually EC50 stands for the concentration at which the effect is half-maximal.

Where “and” joins values, the source holds several entries; their conditions need not be identical. Equal entries are not always repeated. Where two headings read alike, the source gives them in different places.

Consider `C[C@](N)(c1ccc(F)cc1)c1cnc(N2CCN(c3ncnn4cc(-c5cnn(CCO)c5)cc34)CC2)nc1` [BLU-263], for which the “BBB permeability compared to avapritinib” value in [1] was “less BBB permeable compared to avapritinib”.

Take `Cn1cc(-c2cc3c(N4CCN(c5ncc([C@@](C)(NC(=O)c6ccccc6)c6ccc(F)cc6)cn5)CC4)ncnn3c2)cn1` [Compound 13]: the IC50 on KIT-D816H (mean ± s.d., n ≥ 3, ATP at KM (12 µM), read-out: HTRF IC50 KIT-D816H) is 2 ± 0.1 nM; at KIT-D816H (raw data of Table 1, independent experiments, unit from Table 1, read-out: HTRF IC50 KIT-D816H, single determinations) it was 2.1 nM (2×) and 1.8 nM; at PDGFRA-D842V (mean ± s.d., n ≥ 3, ATP at KM (14 µM), read-out: HTRF IC50 PDGFRA-D842V), ~0.2 nM and 0.2 nM; on PDGFRA-D842V (raw data of Table 1, independent experiments 1-3, unit from Table 1, read-out: HTRF IC50 PDGFRA-D842V, single determinations), 0.2 nM and 0.15 nM and 0.28 nM. Also, in the series with SK-LMS-1, the “CTG GR50 SK-LMS-1” value is 9.498 ± 0.869 µM and 9.498 µM. The “CTG GR50 SK-LMS-1, single determinations” value with SK-LMS-1 was 8.494 µM and 10 µM. For the same molecule, the GI50 with GIST-T1 turned out to be 287 ± 176 nM. This molecule also showed a Papp B→A at 2 h, 10 µM in series [2] of 0.47 ×10⁻⁶ cm/s. Further, the Papp A→B at 2 h, 10 µM in series [2] (setting [4]) is 3.5 ×10⁻⁶ cm/s; in series [2] (MDCK-MDR1, Papp A->B, MDCKII-MDR1, assay conc. 10, apical to basolateral), 3.46 ×10⁻⁶ cm/s. Further, the efflux ratio at 2 h, 10 µM with MDR1 (MDCK-MDR1) amounted to 0.13. Moreover, the recovery at 2 h, 10 µM with MDR1 (MDCK-MDR1, Recovery A->B) was 81.4%; in the series with MDR1 (MDCK-MDR1, Recovery B->A) it was 63.6%. In addition, the half-maximal effective concentration (EC50) in the series with MDA-MB-175VII (Homo sapiens, MDA-MB-175-VII, read-out: CTG EC50 MDA-MB-175VII, mean ± s.d., n = 3, control cell line) is at least 10000 nM; in the series with MDA-MB-175VII (setting [5]), at least 10000 nM; in the series with ZR-75-1 (ZR-75-1, mean ± s.d., n = 3, control cell line, read-out: CTG EC50 ZR-75-1), at least 10000 nM; with ZR-75-1 (ZR-75-1, raw data of Supp. Tab. 2, independent experiments, unit from Supp. Tab. 2, read-out: CTG EC50 ZR-75-1, single determinations), at least 10000 nM. In the series on GIST-48B (control cell lines (Table 1, Supplementary Table 2)), the “activity with respect to the control cell lines” value is “completely inactive”. For the same molecule, the “ratio GIST-48B/ T1-a-D842V” value in the series on GIST-48B (ratio of GR50 values) is reported as 196. Further, the GIST-48B/D842V with GIST-48B (ratio of GR50 values, source data sheet) is 196. Besides, the “fold loss of potency compared to avapritinib, T1-a-D842V” value with T1-a-D842V is 3 fold.

For the molecule `Cn1cc(-c2cc3c(N4CCN(c5ncc([C@@](C)(N)c6ccc(F)cc6)cn5)CC4)ncnn3c2)cn1` [ava (1), avapritinib], the GI50 amounted to 256 nM in the series on T1-V654A (read-out: CTG GR50 T1-V654A, single determinations, raw data of Supp. Tab. 1, independent experiments, unit from Supp. Tab. 1); 357 ± 142 nM in the series on T1-V654A (read-out: KIT CTG GR50 T1-V654A, mean ± s.d., n ≥ 3 (* n = 2 for ava)); 570 nM in the series with T1-a-5258 (read-out: CTG GR50 T1-a-5258, single determinations, raw data of Supp. Tab. 1, independent experiments, unit from Supp. Tab. 1); 540 ± 30 nM in the series on T1-a-5258 (read-out: PDGFRA CTG GR50 T1-a-5258, mean ± s.d., n ≥ 3, triple mutant D842V, G652E, V658A); 457 ± 240 nM in the series on T1-T670I; 36 ± 10 nM with GIST-T1. Further, the “CTG GR50 T1-a-G680R, single determinations” value with T1-a-G680R was 1455 nM and 1460 nM. Moreover, the “CTG GR50 SK-LMS-1” value in the series on SK-LMS-1 is 8.423 ± 2.731 µM and 8.423 µM. The “CTG GR50 SK-LMS-1, single determinations” value in the series on SK-LMS-1 was 5.269 µM and 10 µM. In addition, the overall response rates entry in series [3] is “more than 90%”. In series [2], this molecule displayed a Papp B→A at 2 h, 10 µM of 3.02 ×10⁻⁶ cm/s. For the same molecule, the Papp A→B at 2 h, 10 µM in series [2] (setting [4]) stood at 12.5 ×10⁻⁶ cm/s. For the same molecule, the EC50 in the series on MDA-MB-175VII (setting [5]) is 5700 nM; in the series with MDA-MB-175VII (read-out: CTG EC50 MDA-MB-175VII, single determinations, raw data of Supp. Tab. 2, independent experiments, unit from Supp. Tab. 2), 5760 nM and 5880 nM; with MDA-MB-175VII (read-out: CTG EC50 MDA-MB-175VII, mean ± s.d., n = 3, control cell line) it was 5780 nM. In addition, the “KIT CTG GR50 T1-D816E” value in the series on T1-D816E is 67 ± 18 nM and 67 nM.
